{"source": "paper PMC11434422", "about": "(2024)", "key": {"[1]": {"test_system": "c-MYC-G3 (c-MYC-G3-compDNA1 hybridized to anchorDNA1) (DNA, other) TGGGGAGGGTGGGGAATTTTTTTTTCGTGTATTGCTC", "test": "SPR, multi-cycle kinetics, 1:1 fit", "details": "150 mM Li+, 10 mM Ca2+; HBS-EP pH 7.4, 10 mM HEPES, 3 mM EDTA, 0.05% P20, 1% DMSO; hemin 10-100 µM"}, "[2]": {"test_system": "ssDNA (ssDNA-compDNA2 hybridized to anchorDNA2) (DNA, single strand) TGTGTAGTGCGGGTTTTTTTTTTGAGATGCAGATCCTGT", "test": "SPR, multi-cycle injections", "details": "150 mM Li+, 10 mM Ca2+; HBS-EP pH 7.4, 10 mM HEPES, 3 mM EDTA, 0.05% P20, 1% DMSO; hemin 10-100 µM; highest hemin 100 µM; legend: minimal binding"}}}
{"smiles": "C=CC1=C(C)C2=Cc3c(C=C)c(C)c4[n]3[Fe]([Cl])[n]3c(c(C)c(CCC(=O)O)c3=CC3=NC(=C4)C(C)=C3CCC(=O)O)=CC1=N2", "values": [{"measurement": "KD", "setting": "[1]", "value": "263 ± 3", "unit": "µM"}, {"measurement": "binding", "setting": "[2]", "value": "no"}]}
